How the values were obtained:
[1] = biological target: MYO3B (Homo sapiens, UniProt Q8WXR4); test: biochemical; parameters: DiscoverX KinomeScan competition binding assay across human kinases; per cent of control at 10 and 100 uM; settings: competition binding, % of control; read-out: Percent Control (100 uM Levosimendan)
Procedure, shortened: (§1)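 KinomeScan competition binding was run across a human kinase panel at 10 μM and 100 μM levosimendan. Results are %control = (test − positive control)/(negative control − positive control) × 100.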

[2] = biological target: PHKG1 (Homo sapiens, UniProt Q16816); test: biochemical; parameters: DiscoverX KinomeScan competition binding assay across human kinases; per cent of control at 10 and 100 uM; settings: competition binding, % of control; read-out: Percent Control (100 uM Levosimendan)
Procedure, shortened: as §1

[3] = biological target: INSRR (Homo sapiens, UniProt P14616); test: biochemical; parameters: DiscoverX KinomeScan competition binding assay across human kinases; per cent of control at 10 and 100 uM; settings: competition binding, % of control; read-out: Percent Control (100 uM Levosimendan)
Procedure, shortened: as §1

[4] = biological target: T1, ASK2 (Homo sapiens, UniProt O95382); test: biochemical; parameters: DiscoverX KinomeScan competition binding assay across human kinases; per cent of control at 10 and 100 uM; settings: competition binding, % of control; read-out: Percent Control (100 uM Levosimendan)
T1 construct: gene MAP3K6
Procedure, shortened: as §1

[5] = biological target: HIPK3 (Homo sapiens, UniProt Q9H422); test: biochemical; parameters: DiscoverX KinomeScan competition binding assay across human kinases; per cent of control at 10 and 100 uM; settings: competition binding, % of control; read-out: Percent Control (100 uM Levosimendan)
Procedure, shortened: as §1

[6] = biological target: T2, GAK (Homo sapiens, UniProt O14976); test: KinomeScan competition binding assay; settings: 10 μM levosimendan
T2 construct: DiscoverX KinomeScan panel kinase

[7] = test system: U2OS; test: cells; parameters: species or system panel of human cancer cell lines; Eurofins OncoPanel proliferation; nuclei count by high-content fluorescence imaging, 10-point dose response; settings: Homo sapiens, U2OS, 72 h, cell count, 3 days
Method: (§2) OncoPanel cancer cell proliferation assay was performed by Eurofins Panlabs, Inc. (Missouri, USA). Cancer cells were grown in RPMI 1640, 10% FBS, 2 mM L-alanyl-L-glutamine, 1 mM Na pyruvate, or a special medium. Cells were seeded into 384-well plates and incubated in a humidified atmosphere of 5% CO2 at 37°C. Compounds were added the day following cell seeding. At the same time, a time zero untreated cell plate was generated. After a 3-day incubation period, cells were fixed and stained to allow fluorescence imaging of nuclei. Levosimendan was serially diluted in half-log steps from 100 μM and assayed over 10 concentrations with a maximum assay concentration of 0.1% DMSO. Automated fluorescence microscopy was carried out using a Molecular Devices ImageXpress Micro XL high-content imager, and images were collected with a 4X objective. 16-bit TIFF images were acquired and analyzed with MetaXpress 5.1.0.41 software. Cell count EC50 is the test concentration at the curve inflection point (parameter C), or half the effective response. IC50 is the test compound concentration at 50% of the maximum possible response. GI50 is the concentration needed to reduce the observed growth by half (midway between the relative cell count at the curve maximum and at the time of compound addition). Activity area is an estimate of the integrated area above the response curve. Activity area values range from 0–10, where a value of zero indicates no inhibition of proliferation at all concentrations, and a value of 10 indicates complete inhibition of proliferation at all concentrations.

[8] = test system: Caki-2; test: cells; parameters: species or system panel of human cancer cell lines; Eurofins OncoPanel proliferation; nuclei count by high-content fluorescence imaging, 10-point dose response; settings: Homo sapiens, CAKI-2, 72 h, cell count, 3 days
Method: as §2

[9] = test system: IM-9; test: cells; parameters: species or system panel of human cancer cell lines; Eurofins OncoPanel proliferation; nuclei count by high-content fluorescence imaging, 10-point dose response; settings: Homo sapiens, IM-9, 72 h, cell count, 3 days
Method: as §2

[10] = biological target: T3, MAP2K5 (Homo sapiens, UniProt Q13163); test: KinomeScan competition binding assay; settings: 10 μM levosimendan
T3 construct: DiscoverX KinomeScan panel kinase

[11] = biological target: T4, MYLK4 (Homo sapiens, UniProt Q86YV6); test: KinomeScan competition binding assay; parameters: DiscoverX KinomeScan panel kinase; settings: 100 μM levosimendan
T4 sequence (Q86YV6 1-388): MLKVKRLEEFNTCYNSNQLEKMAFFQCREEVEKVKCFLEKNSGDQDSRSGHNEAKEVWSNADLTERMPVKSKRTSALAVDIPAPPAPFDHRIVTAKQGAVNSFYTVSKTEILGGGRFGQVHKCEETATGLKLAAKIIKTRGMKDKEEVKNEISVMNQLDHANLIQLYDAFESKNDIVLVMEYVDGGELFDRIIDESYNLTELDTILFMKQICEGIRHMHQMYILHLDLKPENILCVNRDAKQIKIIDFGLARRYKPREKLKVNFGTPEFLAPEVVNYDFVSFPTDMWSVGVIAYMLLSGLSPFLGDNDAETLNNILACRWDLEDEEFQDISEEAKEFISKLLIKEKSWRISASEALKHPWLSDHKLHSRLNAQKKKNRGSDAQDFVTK

[12] = 50% of maximum possible response

Sequence of HIPK3 (Q9H422 whole entry): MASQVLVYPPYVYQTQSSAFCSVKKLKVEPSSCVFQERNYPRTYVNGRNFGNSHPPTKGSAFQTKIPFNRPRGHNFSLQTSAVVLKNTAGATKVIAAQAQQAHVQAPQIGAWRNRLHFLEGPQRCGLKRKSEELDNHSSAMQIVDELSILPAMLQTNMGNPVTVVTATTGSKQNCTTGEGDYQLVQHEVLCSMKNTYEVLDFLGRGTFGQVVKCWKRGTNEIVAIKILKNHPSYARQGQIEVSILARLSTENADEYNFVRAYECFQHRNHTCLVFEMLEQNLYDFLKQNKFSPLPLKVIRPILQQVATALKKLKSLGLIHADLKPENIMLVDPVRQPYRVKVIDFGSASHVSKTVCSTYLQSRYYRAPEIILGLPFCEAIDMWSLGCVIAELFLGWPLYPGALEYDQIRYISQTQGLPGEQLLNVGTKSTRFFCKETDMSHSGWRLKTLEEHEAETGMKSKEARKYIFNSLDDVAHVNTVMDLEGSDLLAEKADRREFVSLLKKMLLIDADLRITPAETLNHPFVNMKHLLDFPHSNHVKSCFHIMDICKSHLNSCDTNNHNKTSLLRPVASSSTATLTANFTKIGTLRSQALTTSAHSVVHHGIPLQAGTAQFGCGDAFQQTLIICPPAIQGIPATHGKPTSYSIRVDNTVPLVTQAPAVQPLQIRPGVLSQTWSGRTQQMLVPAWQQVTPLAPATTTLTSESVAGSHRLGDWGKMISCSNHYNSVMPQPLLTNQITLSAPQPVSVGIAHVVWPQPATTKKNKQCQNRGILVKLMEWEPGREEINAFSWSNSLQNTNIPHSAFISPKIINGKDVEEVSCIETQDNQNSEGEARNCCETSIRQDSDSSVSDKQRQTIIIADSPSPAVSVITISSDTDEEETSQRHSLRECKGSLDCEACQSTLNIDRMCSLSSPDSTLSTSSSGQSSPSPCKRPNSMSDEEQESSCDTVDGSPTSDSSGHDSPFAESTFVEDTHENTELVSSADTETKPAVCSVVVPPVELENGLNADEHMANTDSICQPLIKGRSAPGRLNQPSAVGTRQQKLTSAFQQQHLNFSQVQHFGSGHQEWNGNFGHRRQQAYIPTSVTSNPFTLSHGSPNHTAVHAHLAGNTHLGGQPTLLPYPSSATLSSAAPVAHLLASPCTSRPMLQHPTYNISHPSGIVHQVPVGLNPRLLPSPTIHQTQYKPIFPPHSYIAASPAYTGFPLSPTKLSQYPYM
T1 sequence (O95382 whole entry): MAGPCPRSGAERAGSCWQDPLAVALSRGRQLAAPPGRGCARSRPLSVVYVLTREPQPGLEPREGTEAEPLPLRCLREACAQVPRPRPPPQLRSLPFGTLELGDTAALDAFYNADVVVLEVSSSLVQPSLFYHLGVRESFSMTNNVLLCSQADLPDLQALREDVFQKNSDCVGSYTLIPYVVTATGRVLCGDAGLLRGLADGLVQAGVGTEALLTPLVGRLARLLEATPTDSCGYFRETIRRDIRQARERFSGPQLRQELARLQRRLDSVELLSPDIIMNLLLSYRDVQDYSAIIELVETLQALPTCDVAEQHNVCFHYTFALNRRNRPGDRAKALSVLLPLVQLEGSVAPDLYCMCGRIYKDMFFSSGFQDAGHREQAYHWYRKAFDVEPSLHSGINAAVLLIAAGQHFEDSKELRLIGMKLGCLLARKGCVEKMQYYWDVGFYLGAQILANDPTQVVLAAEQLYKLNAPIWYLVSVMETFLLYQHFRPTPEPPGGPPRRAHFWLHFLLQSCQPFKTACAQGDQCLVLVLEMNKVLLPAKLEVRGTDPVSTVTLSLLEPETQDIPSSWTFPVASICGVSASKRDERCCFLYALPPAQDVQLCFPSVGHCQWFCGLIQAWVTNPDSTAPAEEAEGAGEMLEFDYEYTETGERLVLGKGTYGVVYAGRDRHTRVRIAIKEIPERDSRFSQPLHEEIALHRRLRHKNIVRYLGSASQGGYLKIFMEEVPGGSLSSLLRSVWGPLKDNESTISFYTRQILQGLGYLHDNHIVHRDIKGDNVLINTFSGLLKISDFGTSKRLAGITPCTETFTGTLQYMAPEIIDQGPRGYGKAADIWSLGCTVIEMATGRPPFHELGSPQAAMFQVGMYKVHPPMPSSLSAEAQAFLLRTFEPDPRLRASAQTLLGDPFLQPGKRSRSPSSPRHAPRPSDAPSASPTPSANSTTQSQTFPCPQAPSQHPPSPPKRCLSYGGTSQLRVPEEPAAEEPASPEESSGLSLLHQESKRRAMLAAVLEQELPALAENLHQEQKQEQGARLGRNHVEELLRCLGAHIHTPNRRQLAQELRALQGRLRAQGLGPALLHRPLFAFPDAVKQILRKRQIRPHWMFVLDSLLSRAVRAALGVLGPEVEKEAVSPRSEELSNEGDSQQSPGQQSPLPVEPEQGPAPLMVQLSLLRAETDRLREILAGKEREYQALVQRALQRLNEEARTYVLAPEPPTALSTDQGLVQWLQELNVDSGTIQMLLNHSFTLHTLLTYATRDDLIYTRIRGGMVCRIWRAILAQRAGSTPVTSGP
Sequence of INSRR (P14616 whole entry): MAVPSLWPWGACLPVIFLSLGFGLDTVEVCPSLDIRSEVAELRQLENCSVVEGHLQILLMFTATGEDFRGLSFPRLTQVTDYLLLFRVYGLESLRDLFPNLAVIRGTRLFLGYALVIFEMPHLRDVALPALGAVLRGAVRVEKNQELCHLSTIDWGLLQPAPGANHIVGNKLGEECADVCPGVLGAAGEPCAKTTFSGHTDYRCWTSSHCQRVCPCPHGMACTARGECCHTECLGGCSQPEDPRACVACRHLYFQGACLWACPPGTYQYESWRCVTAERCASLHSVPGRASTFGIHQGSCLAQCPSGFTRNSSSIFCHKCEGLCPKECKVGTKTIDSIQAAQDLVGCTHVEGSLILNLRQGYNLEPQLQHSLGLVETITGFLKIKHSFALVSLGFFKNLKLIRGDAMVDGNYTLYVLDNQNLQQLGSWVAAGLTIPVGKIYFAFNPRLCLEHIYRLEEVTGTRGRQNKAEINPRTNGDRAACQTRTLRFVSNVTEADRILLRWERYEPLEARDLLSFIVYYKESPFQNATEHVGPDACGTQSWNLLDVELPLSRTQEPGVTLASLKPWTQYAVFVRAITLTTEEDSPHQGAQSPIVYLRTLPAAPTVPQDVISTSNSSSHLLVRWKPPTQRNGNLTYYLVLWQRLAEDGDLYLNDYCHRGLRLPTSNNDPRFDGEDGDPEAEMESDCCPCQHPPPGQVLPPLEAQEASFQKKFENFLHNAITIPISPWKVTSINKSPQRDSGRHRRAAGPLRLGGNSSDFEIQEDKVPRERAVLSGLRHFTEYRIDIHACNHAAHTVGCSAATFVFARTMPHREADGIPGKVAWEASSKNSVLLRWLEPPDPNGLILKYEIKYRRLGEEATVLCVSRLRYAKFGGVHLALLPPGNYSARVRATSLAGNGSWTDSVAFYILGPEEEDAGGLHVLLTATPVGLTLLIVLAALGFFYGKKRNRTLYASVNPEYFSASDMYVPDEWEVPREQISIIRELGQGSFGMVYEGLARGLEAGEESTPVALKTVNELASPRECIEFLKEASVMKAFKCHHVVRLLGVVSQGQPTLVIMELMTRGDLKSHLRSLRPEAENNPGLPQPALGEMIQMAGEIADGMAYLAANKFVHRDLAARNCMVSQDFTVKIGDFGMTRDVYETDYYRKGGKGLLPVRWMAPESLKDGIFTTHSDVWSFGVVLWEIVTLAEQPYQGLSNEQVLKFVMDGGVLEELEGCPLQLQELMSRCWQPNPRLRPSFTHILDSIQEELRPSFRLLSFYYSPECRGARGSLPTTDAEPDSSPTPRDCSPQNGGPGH
T2 sequence (O14976 2-1311): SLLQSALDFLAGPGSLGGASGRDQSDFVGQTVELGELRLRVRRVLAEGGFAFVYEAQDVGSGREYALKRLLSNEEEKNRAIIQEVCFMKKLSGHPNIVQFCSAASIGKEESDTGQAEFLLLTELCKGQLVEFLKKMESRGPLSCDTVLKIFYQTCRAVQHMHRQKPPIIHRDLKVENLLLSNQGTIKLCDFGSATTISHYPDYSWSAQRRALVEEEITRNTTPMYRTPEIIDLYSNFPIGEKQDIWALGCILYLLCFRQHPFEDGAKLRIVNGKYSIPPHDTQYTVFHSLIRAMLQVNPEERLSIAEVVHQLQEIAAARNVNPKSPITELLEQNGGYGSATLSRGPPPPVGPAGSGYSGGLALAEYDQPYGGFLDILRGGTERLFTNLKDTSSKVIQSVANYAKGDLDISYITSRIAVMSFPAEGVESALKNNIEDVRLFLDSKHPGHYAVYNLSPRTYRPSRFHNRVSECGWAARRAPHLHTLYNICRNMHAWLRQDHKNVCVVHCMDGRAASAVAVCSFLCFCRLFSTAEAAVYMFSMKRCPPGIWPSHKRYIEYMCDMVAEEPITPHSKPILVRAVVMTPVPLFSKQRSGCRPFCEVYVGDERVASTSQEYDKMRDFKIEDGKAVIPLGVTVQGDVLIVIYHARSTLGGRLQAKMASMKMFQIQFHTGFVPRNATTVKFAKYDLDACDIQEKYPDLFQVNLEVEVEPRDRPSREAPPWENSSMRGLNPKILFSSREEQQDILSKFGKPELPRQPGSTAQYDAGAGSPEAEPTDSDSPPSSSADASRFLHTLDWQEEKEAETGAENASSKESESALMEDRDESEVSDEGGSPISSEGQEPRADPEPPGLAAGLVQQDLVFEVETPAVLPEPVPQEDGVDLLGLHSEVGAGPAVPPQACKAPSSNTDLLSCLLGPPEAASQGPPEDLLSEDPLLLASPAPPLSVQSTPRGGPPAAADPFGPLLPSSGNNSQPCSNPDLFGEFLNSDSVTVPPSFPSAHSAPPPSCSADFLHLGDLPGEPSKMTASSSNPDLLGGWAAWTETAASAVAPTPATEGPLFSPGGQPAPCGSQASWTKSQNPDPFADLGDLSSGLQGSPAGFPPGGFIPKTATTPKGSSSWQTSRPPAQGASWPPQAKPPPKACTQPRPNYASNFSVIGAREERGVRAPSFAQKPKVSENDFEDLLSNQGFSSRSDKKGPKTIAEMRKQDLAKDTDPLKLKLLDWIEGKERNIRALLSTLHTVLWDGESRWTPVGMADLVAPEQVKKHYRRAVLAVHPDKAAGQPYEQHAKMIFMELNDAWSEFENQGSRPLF

Question: C[C@@H]1CC(=O)NN=C1c1ccc(NN=C(C#N)C#N)cc1 [levosimendan] was tested. Which remaining binding at 100 µM [1] did it give?
Answer: The remaining binding at 100 µM was 100%.

Question: What about the remaining binding at 100 µM [2] of the same compound?
Answer: The remaining binding at 100 µM was 89%.

Question: And the remaining binding at 100 µM [3]?
Answer: Its remaining binding at 100 µM is 96%.

Question: And the remaining binding at 100 µM [4]?
Answer: The remaining binding at 100 µM was 80%.

Question: What about the remaining binding at 100 µM [5] of the same compound?
Answer: The remaining binding at 100 µM was 100%.

Question: And the “percentage control at 10 μM” value [6]?
Answer: The value was < 30.0%.

Question: What about the IC50 [7, 12] of the same compound?
Answer: Its IC50 is 8.58 µM.

Question: What about the GI50 ([7]; corrected for time zero) of the same compound?
Answer: The GI50 was 6.64 µM.

Question: And the EC50 ([7]; curve inflection point)?
Answer: The EC50 was 7.6 µM.

Question: What about the IC50 [8, 12] of the same compound?
Answer: The IC50 was > 100 µM.

Question: What about the GI50 ([8]; corrected for time zero) of the same compound?
Answer: The GI50 was > 100 µM.

Question: What about the EC50 ([8]; curve inflection point) of the same compound?
Answer: Its EC50 is > 100 µM.

Question: What about the IC50 [9, 12] of the same compound?
Answer: Its IC50 is 41 µM.

Question: And the GI50 ([9]; corrected for time zero)?
Answer: Its GI50 is 35.5 µM.

Question: And the EC50 ([9]; curve inflection point)?
Answer: The EC50 was 41 µM.

Question: And the “percentage control at 10 μM” value [10]?
Answer: Its value is < 30.0%.

Question: What about the “percentage control at 100 μM” value [11] of the same compound?
Answer: The value was “two have intermediate binding affinities (MYLK4 and CAMK2)”.
